Results as given in the supplement of paper PMC8960247.
± gives the standard error.

test system: 621-103 (TSC2-rescued); assay: relative viability vs DMSO; higher = less cytotoxic; conditions: 0.1 µM; serum: 10% FBS; 72 h
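Also: immortalized renal angiomyolipoma cells stably carrying empty vector or TSC2, dosed in 384-well plates in DMEM, viability normalized to vehicle-treated wells within each plate.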

Row | SMILES | relative viability
1 | C=CC(=O)N1CCC[C@@H](n2nc(-c3ccc(Oc4ccccc4)cc3)c3c(N)ncnc32)C1 | 103 ± 3%
2 | CC(=O)c1c(C)c2cnc(Nc3ccc(N4CCNCC4)cn3)nc2n(C2CCCC2)c1=O | 104.4 ± 0.59%
3 | CC(C)(C(=O)NCC(F)(F)C(F)(F)F)C(=O)N[C@@H]1C(=O)Nc2ccccc2-c2ccccc21 | 106 ± 1.1%
4 | CC(C)(C)Cn1c(N)nc2ccc(-c3[nH]c(C(C)(C)C)nc3-c3ccc(F)cc3)nc21 | 95.4 ± 1.8%
5 | CC(C)CC(=O)Nc1n[nH]c2c1CN(C(=O)C1CCN(C)CC1)C2(C)C | 102 ± 1.3%
6 | CC(C)c1cc(-c2ccc(F)c3ccccc23)nc(N)n1 | 107 ± 3.5%
7 | CC1(C)C(=O)N(CCN2CCC(C(=O)c3ccc(F)cc3)CC2)c2ccccc21 | 101 ± 4.7%
8 | CC1(C)CC(=O)c2c(C(F)(F)F)nn(-c3ccc(C(N)=O)c(N[C@H]4CC[C@H](OC(=O)CN)CC4)c3)c2C1 | 7.92 ± 0.44%
9 | CC1=C(C(=O)Nc2cc3cn[nH]c3cc2F)C(c2ccc(C(F)(F)F)cc2)CC(=O)N1 (stereo not drawn) | 101.2 ± 0.43%
10 | CN(C)Cc1ccc(-c2nc3cccc4c3n2CCNC4=O)cc1 | 105 ± 1.6%
11 | CN(c1ncccc1CNc1nc(Nc2ccc3c(c2)CC(=O)N3)ncc1C(F)(F)F)S(C)(=O)=O | 100.6 ± 0.65%
12 | CN1CCN(c2ccc([N+](=O)[O-])c3no[n+]([O-])c23)CC1 | 98.8 ± 1.6%
13 | CNC(=O)c1ccc(C)c(-n2c(C)cc(OCc3ccc(F)cc3F)c(Br)c2=O)c1 | 97.6 ± 0.99%
14 | CNCc1ccc(-c2[nH]c3cc(F)cc4c3c2CCNC4=O)cc1 | 107.6 ± 0.23%
15 | COC(=O)N1CCN(Cc2cccc(NC(=O)Nc3ccc(C)nc3)c2F)CC1 | 101 ± 2.6%
16 | COc1cc(Nc2ncc(F)c(Nc3ccc4c(n3)N(COP(=O)(O)O)C(=O)C(C)(C)O4)n2)cc(OC)c1OC | 102 ± 5%
17 | COc1cc(OC)c(/C=C/S(=O)(=O)Cc2ccc(OC)c(NCC(=O)O)c2)c(OC)c1 | 97.9 ± 1.8%
18 | COc1cc(OC)c(NC(=O)Nc2cc(C)on2)cc1Cl | 113 ± 2.9%
19 | COc1cc2ncnc(Nc3cccc(Br)c3)c2cc1OC | 98.4 ± 2.3%
20 | COc1ccc(-c2cc3c(C)nc(N)nc3n([C@H]3CC[C@H](OCCO)CC3)c2=O)cn1 | 56.7 ± 2%
21 | COc1ccc(-c2ccc3c(N4CCOCC4)nc(N4C[C@@H](C)O[C@@H](C)C4)nc3n2)cc1CO | 104 ± 1.4%

Row | SMILES | relative viability
22 | COc1cccc(-c2cc(=O)c3ccccc3o2)c1N | 99.8 ± 1.2%
23 | COc1cccc(Nc2c(C(N)=O)cnc3c(C)cc(S(=O)(=O)c4cccc(C(=O)N(C)C)c4)cc23)c1 | 103.2 ± 0.47%
24 | COc1ncc(-c2ccc3nccc(-c4ccnnc4)c3c2)cc1NS(=O)(=O)c1ccc(F)cc1F | 61.4 ± 2.5%
25 | C[C@@H](Oc1cc(-c2cnn(C3CCNCC3)c2)cnc1N)c1c(Cl)ccc(F)c1Cl | 103 ± 1.6%
26 | C[C@@H](Oc1cc(-n2cnc3ccc(CN4CCN(C)CC4)cc32)sc1C(N)=O)c1ccccc1C(F)(F)F | 48.49 ± 0.29%
27 | C[C@@H]1CN(CC(=O)Nc2ccc3c(c2)Cc2cccc(-c4cc(=O)cc(N5CCOCC5)o4)c2S3)C[C@H](C)O1 | 84.6 ± 1%
28 | Cc1ccc(CN2CCNCC2)cc1NC(=O)CNc1ccc(F)c(F)c1 | 102 ± 2.5%
29 | Cc1cccc(-c2nn3c(c2-c2ccnc4ccc(C(N)=O)cc24)CCC3)n1 | 97.7 ± 2.5%
30 | Cc1ccccc1-n1c(Cn2cnc3c(N)ncnc32)nc2cccc(C)c2c1=O | 100 ± 1.5%
31 | Cn1cc(-c2ccc3nnc(C(F)(F)c4ccc5ncccc5c4)n3n2)cn1 | 100.3 ± 0.23%
32 | NC1=N[C@@]2(c3cc(NC(=O)c4ccc(F)cn4)ccc3F)COC[C@H]2CS1 | 101 ± 2%
33 | Nc1nc(Nc2ccc(S(N)(=O)=O)cc2)nn1C(=O)c1c(F)cccc1F | 110 ± 4.5%
34 | O=C(NOCC(O)CO)c1cc(Br)c(F)c(F)c1Nc1ccc(I)cc1F (stereo not drawn) | 93.54 ± 0.87%
35 | O=C(NOC[C@H](O)CO)c1ccc(F)c(F)c1Nc1ccc(I)cc1F | 94.5 ± 0.99%
36 | O=C(c1ccc(F)cc1)N1CCC[C@H](c2nc(-c3ccc(F)cc3)no2)C1 | 103 ± 2.4%
37 | O=C1NC(=O)/C(=C/c2ccc3nccc(-c4ccncc4)c3c2)S1 | 101.5 ± 0.46%
38 | O=c1cc(-c2cccc3c2Sc2ccccc2S3)oc(N2CCOCC2)c1 | 82.9 ± 0.99%
39 | O=c1cc(N2CCOCC2)oc2c(-c3ccccc3)cccc12 | 97.55 ± 0.48%
40 | OCCn1cc(-c2cnc3nnn(Cc4ccc5ncccc5c4)c3n2)cn1 | 103 ± 1.6%
41 | Oc1ccc([C@@H]2Oc3ccc(O)cc3[C@@H]3CCC[C@@H]32)cc1 | 106 ± 2.1%
42 | c1ccc2c(CCNc3ccc(Nc4ccncc4)cc3)c[nH]c2c1 | 106 ± 1.8%

same assay, conditions: 1 µM; serum: 10% FBS; 72 h

Row | SMILES | relative viability
43 | C=CC(=O)N1CCC[C@@H](n2nc(-c3ccc(Oc4ccccc4)cc3)c3c(N)ncnc32)C1 | 108.4 ± 0.78%
44 | CC(=O)c1c(C)c2cnc(Nc3ccc(N4CCNCC4)cn3)nc2n(C2CCCC2)c1=O | 106.6 ± 0.72%
45 | CC(C)(C(=O)NCC(F)(F)C(F)(F)F)C(=O)N[C@@H]1C(=O)Nc2ccccc2-c2ccccc21 | 103.7 ± 0.41%
46 | CC(C)(C)Cn1c(N)nc2ccc(-c3[nH]c(C(C)(C)C)nc3-c3ccc(F)cc3)nc21 | 93.7 ± 0.94%
47 | CC(C)CC(=O)Nc1n[nH]c2c1CN(C(=O)C1CCN(C)CC1)C2(C)C | 94.4 ± 1.7%
48 | CC(C)c1cc(-c2ccc(F)c3ccccc23)nc(N)n1 | 101.7 ± 0.2%
49 | CC1(C)C(=O)N(CCN2CCC(C(=O)c3ccc(F)cc3)CC2)c2ccccc21 | 96.7 ± 2%
50 | CC1(C)CC(=O)c2c(C(F)(F)F)nn(-c3ccc(C(N)=O)c(N[C@H]4CC[C@H](OC(=O)CN)CC4)c3)c2C1 | 6.41 ± 0.23%
51 | CC1=C(C(=O)Nc2cc3cn[nH]c3cc2F)C(c2ccc(C(F)(F)F)cc2)CC(=O)N1 (stereo not drawn) | 99.79 ± 0.91%
52 | CN(C)Cc1ccc(-c2nc3cccc4c3n2CCNC4=O)cc1 | 103 ± 0.17%
53 | CN(c1ncccc1CNc1nc(Nc2ccc3c(c2)CC(=O)N3)ncc1C(F)(F)F)S(C)(=O)=O | 97.5 ± 6.1%
54 | CN1CCN(c2ccc([N+](=O)[O-])c3no[n+]([O-])c23)CC1 | 96 ± 2.7%
55 | CNC(=O)c1ccc(C)c(-n2c(C)cc(OCc3ccc(F)cc3F)c(Br)c2=O)c1 | 99.4 ± 1.4%
56 | CNCc1ccc(-c2[nH]c3cc(F)cc4c3c2CCNC4=O)cc1 | 111 ± 1.2%
57 | COC(=O)N1CCN(Cc2cccc(NC(=O)Nc3ccc(C)nc3)c2F)CC1 | 108 ± 2.7%
58 | COc1cc(Nc2ncc(F)c(Nc3ccc4c(n3)N(COP(=O)(O)O)C(=O)C(C)(C)O4)n2)cc(OC)c1OC | 78.9 ± 2.7%
59 | COc1cc(OC)c(/C=C/S(=O)(=O)Cc2ccc(OC)c(NCC(=O)O)c2)c(OC)c1 | 47.98 ± 0.052%
60 | COc1cc(OC)c(NC(=O)Nc2cc(C)on2)cc1Cl | 109 ± 2.6%
61 | COc1cc2ncnc(Nc3cccc(Br)c3)c2cc1OC | 101 ± 1.6%
62 | COc1ccc(-c2cc3c(C)nc(N)nc3n([C@H]3CC[C@H](OCCO)CC3)c2=O)cn1 | 30.52 ± 0.21%
63 | COc1ccc(-c2ccc3c(N4CCOCC4)nc(N4C[C@@H](C)O[C@@H](C)C4)nc3n2)cc1CO | 83.1 ± 2.7%
